Measured values as given in PubChem BioAssay AID1918933 (Molecular Pharmacology Branch, DTP, NCI, 2023).
pIC50: −log10 of the molar value.

System: 186277-243-T-J2-PDC complex spheroid viability
Assay: Anticancer human tumor 186277-243-T-J2-PDC patient-derived colon adenocarcinoma cell line growth inhibition
Conditions: for pIC50: curve of first compound; for viability, T/C: stronger effect = lower value; active = viability on the fitted dose curve at most 10% of control; inactive = the rest
In short: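 Complex spheroids of tumor cells with HUVEC and human MSCs, exposed to iadademstat combined with other agents. Each agent tested in half-log steps from near clinical Cmax (else 10 microM top), DMSO ≤0.25%.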

[1] = second compound 0.1 µM, first compound 0.000316 µM
[2] = second compound 0.1 µM, first compound 0.001 µM
[3] = second compound 0.1 µM, first compound 0.00316 µM
[4] = second compound 0.1 µM, first compound 0.01 µM
[5] = second compound 0.1 µM, first compound 0.0316 µM
[6] = second compound 0.1 µM, first compound 0.1 µM
[7] = second compound 0.316 µM, first compound 0.000316 µM
[8] = second compound 0.316 µM, first compound 0.001 µM
[9] = second compound 0.316 µM, first compound 0.00316 µM
[10] = second compound 0.316 µM, first compound 0.01 µM
[11] = second compound 0.316 µM, first compound 0.0316 µM
[12] = second compound 0.316 µM, first compound 0.1 µM
[13] = second compound 1 µM, first compound 0.000316 µM
[14] = second compound 1 µM, first compound 0.001 µM
[15] = second compound 1 µM, first compound 0.00316 µM
[16] = second compound 1 µM, first compound 0.01 µM
[17] = second compound 1 µM, first compound 0.0316 µM
[18] = second compound 1 µM, first compound 0.1 µM
[19] = second compound 3.16 µM, first compound 0.000316 µM
[20] = second compound 3.16 µM, first compound 0.001 µM
[21] = second compound 3.16 µM, first compound 0.00316 µM
[22] = second compound 3.16 µM, first compound 0.01 µM
[23] = second compound 3.16 µM, first compound 0.0316 µM
[24] = second compound 3.16 µM, first compound 0.1 µM
[25] = second compound 10 µM, first compound 0.000316 µM
[26] = second compound 10 µM, first compound 0.001 µM
[27] = second compound 10 µM, first compound 0.00316 µM
[28] = second compound 10 µM, first compound 0.01 µM
[29] = second compound 10 µM, first compound 0.0316 µM
[30] = second compound 10 µM, first compound 0.1 µM
[31] = second compound 0.1 µM, first compound 0.00949 µM
[32] = second compound 0.1 µM, first compound 0.03 µM
[33] = second compound 0.1 µM, first compound 0.0949 µM
[34] = second compound 0.1 µM, first compound 0.3 µM
[35] = second compound 0.316 µM, first compound 0.00949 µM
[36] = second compound 0.316 µM, first compound 0.03 µM
[37] = second compound 0.316 µM, first compound 0.0949 µM
[38] = second compound 0.316 µM, first compound 0.3 µM
[39] = second compound 1 µM, first compound 0.00949 µM
[40] = second compound 1 µM, first compound 0.03 µM
[41] = second compound 1 µM, first compound 0.0949 µM
[42] = second compound 1 µM, first compound 0.3 µM
[43] = second compound 3.16 µM, first compound 0.00949 µM
[44] = second compound 3.16 µM, first compound 0.03 µM
[45] = second compound 3.16 µM, first compound 0.0949 µM
[46] = second compound 3.16 µM, first compound 0.3 µM
[47] = second compound 10 µM, first compound 0.00949 µM
[48] = second compound 10 µM, first compound 0.03 µM
[49] = second compound 10 µM, first compound 0.0949 µM
[50] = second compound 10 µM, first compound 0.3 µM
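Also: 7 day exposure to compounds.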
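For viability, T/C in this document: 100% = DMSO vehicle control viability.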

CC(C)CC(NC(=O)C(Cc1ccccc1)NC(=O)c1cnccn1)B(O)O (stereo not given) + NC1CC1c1ccc(-c2cccc(O)c2)cc1
9.25: pIC50 (second compound 10 µM)
9.22: pIC50 (second compound 0.1 µM)
active: viability, T/C [2] 3.98% | viability, T/C [3] 0.06% | viability, T/C [4] 0.02% | viability, T/C [5] 0.02% | viability, T/C [6] 0.12% | viability, T/C [8] 1.53% | viability, T/C [9] 0.04% | viability, T/C [10] 0.01% | viability, T/C [11] 0.37% | viability, T/C [12] 0.1% | viability, T/C [14] 1.48% | viability, T/C [15] 0.05% | viability, T/C [16] 0.02% | viability, T/C [17] 0.07% | viability, T/C [18] 0.1% | viability, T/C [20] 1.66% | viability, T/C [21] 0.06% | viability, T/C [22] 0.02% | viability, T/C [23] 0.64% | viability, T/C [24] 0.74% | viability, T/C [26] 0.65% | viability, T/C [27] 0.13% | viability, T/C [28] 0.2% | viability, T/C [29] 0.13% | viability, T/C [30] 0.89%
9.24: pIC50 (second compound 3.16 µM)
inactive: viability, T/C [1] 108% | viability, T/C [7] 94.1% | viability, T/C [13] 94.3% | viability, T/C [19] 101% | viability, T/C [25] 97.9%
9.26: pIC50 (second compound 0.316 µM) | pIC50 (second compound 1 µM)

CC(C)CC(NC(=O)CNC(=O)c1cc(Cl)ccc1Cl)B1OC(=O)CC(CC(=O)O)(C(=O)O)O1 (stereo not given) + NC1CC1c1ccc(-c2cccc(O)c2)cc1
8.11: pIC50 (second compound 10 µM)
7.97: pIC50 (second compound 1 µM) | pIC50 (second compound 3.16 µM)
active: viability, T/C [5] 6.34% | viability, T/C [6] 0.22% | viability, T/C [11] 1.86% | viability, T/C [12] 0.17% | viability, T/C [17] 1.62% | viability, T/C [18] 0.2% | viability, T/C [23] 1.26% | viability, T/C [24] 0.43% | viability, T/C [29] 0.83% | viability, T/C [30] 0.22%
inactive: viability, T/C [1] 110% | viability, T/C [2] 95.8% | viability, T/C [3] 111% | viability, T/C [4] 51.9% | viability, T/C [7] 110% | viability, T/C [8] 111% | viability, T/C [9] 111% | viability, T/C [10] 54.3% | viability, T/C [13] 110% | viability, T/C [14] 111% | viability, T/C [15] 116% | viability, T/C [16] 53.2% | viability, T/C [19] 111% | viability, T/C [20] 117% | viability, T/C [21] 110% | viability, T/C [22] 52.6% | viability, T/C [25] 117% | viability, T/C [26] 114% | viability, T/C [27] 100% | viability, T/C [28] 36.1%
7.98: pIC50 (second compound 0.1 µM)
7.96: pIC50 (second compound 0.316 µM)

CCc1c2c(nc3ccc(O)cc13)-c1cc3c(c(=O)n1C2)COC(=O)[C@]3(O)CC + NC1CC1c1ccc(-c2cccc(O)c2)cc1
inactive: viability, T/C (second compound 0.1 µM, first compound 0.000949 µM) 41.8% | viability, T/C (second compound 0.1 µM, first compound 0.003 µM) 30.3% | viability, T/C [31] 21.5% | viability, T/C (second compound 0.316 µM, first compound 0.000949 µM) 43.1% | viability, T/C (second compound 0.316 µM, first compound 0.003 µM) 29.9% | viability, T/C [35] 22.4% | viability, T/C (second compound 1 µM, first compound 0.000949 µM) 42.2% | viability, T/C (second compound 1 µM, first compound 0.003 µM) 28.3% | viability, T/C [39] 24.3% | viability, T/C (second compound 3.16 µM, first compound 0.000949 µM) 42.7% | viability, T/C (second compound 3.16 µM, first compound 0.003 µM) 29% | viability, T/C [43] 24% | viability, T/C (second compound 10 µM, first compound 0.000949 µM) 35.4% | viability, T/C (second compound 10 µM, first compound 0.003 µM) 23.4% | viability, T/C [47] 17.3%
> 9.02: pIC50 (second compound 0.1 µM) | pIC50 (second compound 0.316 µM) | pIC50 (second compound 1 µM) | pIC50 (second compound 3.16 µM) | pIC50 (second compound 10 µM)
active: viability, T/C [32] 3.91% | viability, T/C [33] 1.18% | viability, T/C [34] 0.24% | viability, T/C [36] 3.45% | viability, T/C [37] 0.15% | viability, T/C [38] 0.17% | viability, T/C [40] 3.43% | viability, T/C [41] 0.22% | viability, T/C [42] 0.17% | viability, T/C [44] 3.34% | viability, T/C [45] 0.22% | viability, T/C [46] 0.16% | viability, T/C [48] 1.73% | viability, T/C [49] 0.19% | viability, T/C [50] 0.23%

Nc1ccccc1NC(=O)c1ccc(CNC(=O)OCc2cccnc2)cc1 + NC1CC1c1ccc(-c2cccc(O)c2)cc1
6.23: pIC50 (second compound 1 µM)
6.25: pIC50 (second compound 3.16 µM)
6.24: pIC50 (second compound 0.316 µM)
6.22: pIC50 (second compound 0.1 µM)
inactive: viability, T/C [31] 93.8% | viability, T/C [32] 104% | viability, T/C [33] 91.6% | viability, T/C [34] 98.6% | viability, T/C (second compound 0.1 µM, first compound 0.949 µM) 18.1% | viability, T/C [35] 99.6% | viability, T/C [36] 99.6% | viability, T/C [37] 108% | viability, T/C [38] 93.5% | viability, T/C (second compound 0.316 µM, first compound 0.949 µM) 15.4% | viability, T/C [39] 98.8% | viability, T/C [40] 94.1% | viability, T/C [41] 98.8% | viability, T/C [42] 94.7% | viability, T/C (second compound 1 µM, first compound 0.949 µM) 17.7% | viability, T/C [43] 99.8% | viability, T/C [44] 110% | viability, T/C [45] 109% | viability, T/C [46] 87.9% | viability, T/C (second compound 3.16 µM, first compound 0.949 µM) 18.5% | viability, T/C [47] 96.2% | viability, T/C [48] 97.3% | viability, T/C [49] 104% | viability, T/C [50] 83.3% | viability, T/C (second compound 10 µM, first compound 0.949 µM) 11.8%
active: viability, T/C (second compound 0.1 µM, first compound 3 µM) 1.51% | viability, T/C (second compound 0.316 µM, first compound 3 µM) 0.84% | viability, T/C (second compound 1 µM, first compound 3 µM) 0.9% | viability, T/C (second compound 3.16 µM, first compound 3 µM) 1.44% | viability, T/C (second compound 10 µM, first compound 3 µM) 1.02%
6.29: pIC50 (second compound 10 µM)

O=C(c1cc(Cc2n[nH]c(=O)c3ccccc23)ccc1F)N1CCN(C(=O)C2CC2)CC1 + NC1CC1c1ccc(-c2cccc(O)c2)cc1
inactive: viability, T/C [5] 98.8% | viability, T/C [6] 89.7% | viability, T/C (second compound 0.1 µM, first compound 0.316 µM) 95.4% | viability, T/C (second compound 0.1 µM, first compound 1 µM) 103% | viability, T/C (second compound 0.1 µM, first compound 3.16 µM) 122% | viability, T/C (second compound 0.1 µM, first compound 10 µM) 107% | viability, T/C [11] 101% | viability, T/C [12] 101% | viability, T/C (second compound 0.316 µM, first compound 0.316 µM) 110% | viability, T/C (second compound 0.316 µM, first compound 1 µM) 92.6% | viability, T/C (second compound 0.316 µM, first compound 3.16 µM) 121% | viability, T/C (second compound 0.316 µM, first compound 10 µM) 98.5% | viability, T/C [17] 106% | viability, T/C [18] 92.7% | viability, T/C (second compound 1 µM, first compound 0.316 µM) 97.4% | viability, T/C (second compound 1 µM, first compound 1 µM) 95.1% | viability, T/C (second compound 1 µM, first compound 3.16 µM) 120% | viability, T/C (second compound 1 µM, first compound 10 µM) 106% | viability, T/C [23] 84.6% | viability, T/C [24] 101% | viability, T/C (second compound 3.16 µM, first compound 0.316 µM) 95.8% | viability, T/C (second compound 3.16 µM, first compound 1 µM) 103% | viability, T/C (second compound 3.16 µM, first compound 3.16 µM) 115% | viability, T/C (second compound 3.16 µM, first compound 10 µM) 108% | viability, T/C [29] 87.9% | viability, T/C [30] 92% | viability, T/C (second compound 10 µM, first compound 0.316 µM) 93.8% | viability, T/C (second compound 10 µM, first compound 1 µM) 85.4% | viability, T/C (second compound 10 µM, first compound 3.16 µM) 120% | viability, T/C (second compound 10 µM, first compound 10 µM) 98.5%
< 5.00: pIC50 (second compound 0.1 µM) | pIC50 (second compound 0.316 µM) | pIC50 (second compound 1 µM) | pIC50 (second compound 3.16 µM) | pIC50 (second compound 10 µM)
